The data set deals with corneas of Sprague-Dawley rats. Particulars: rat, in vivo. On the procedure:
For assessment of in vivo biocompatibility, animals were cared for and experiments conducted in accordance with protocols approved by the Animal Care and Use Committee of the Johns Hopkins University. Protocols are also in accordance with the ARVO Statement for the Use of Animals in Ophthalmic and Vision Research. […] Prior to implantation, rats were intraperitoneally anesthetized with a solution of Ketamine:Xylazine (75:5 mg/kg, Sigma Aldrich) and a drop of 0.5% proparacaine hydrochloride ophthalmic solution (Bausch & Lomb Inc., Tampa, Fla.) was applied to the cornea. Following implantation, the rats were evaluated for signs of infection every day for seven days. The rats were then euthanized and eyes enucleated, fixed in formalin (Sigma Aldrich) for 24 h, embedded in paraffin, cross sectioned, and stained with hematoxylin and eosin for histological evaluation.

As for nylon, the “tissue reaction (histological analysis)” value is “no obvious signs of neovascularization or inflammation”.

The values are drawn from patent US20190142993A1, “ULTRA-THIN, HIGH STRENGTH, DRUG-LOADED SUTURES AND COATINGS THEREOF” (The Johns Hopkins University, priority 2016, published 2019).
